Values after ≈ are worked out from the molar mass of the structure shown. Like-named read-outs stand apart in the source and are kept apart here.
What was measured:
[1] = system: PDGFAA stimulated phosphorylation of ERK1 and ERK2; test: PDGFAA stimulated phosphorylation of ERK1 and ERK2 in human fetal lung fibroblasts; type: cell-based; details: 1 uM; PDGFAA 10 ng/ml
Excerpt: (§1) Data shown are mean±SEM. […] PK10453=structure 2; PK10571=structure 2a. Platelet derived growth factor receptor alpha=PDGFR-alpha=PDGFR-α=PDGF receptor alpha=PDGF alpha receptor. Platelet derived growth factor receptor beta=PDGFR-beta=PDGFRβ=PDGF receptor beta=PDGF beta receptor.

[2] = system: rat MCT+PN model; test: Telemetry of pulmonary artery pressure in rat MCT+PN model; type: in vivo; details: rat MCT+PN
Experimental: Pneumonectomy and implantation of a TRM53P telemetry monitor in the pulmonary artery (Telemetry Research, New Zealand and ADInstruments, Colorado) was carried out in rats. Two weeks after MCT, PK10453 (Structure 2) was administered three times daily for 1 week. […] The two groups underwent 4 min exposures of either the vehicle control or PK10453 (Structure 2). Sampling of PA pressure was performed 5 min before each morning dose in ambulatory animals in room air (estimated atmospheric pressure 716 mm Hg based on elevation of animal facility). […] Telemetry data was obtained for 10 min daily before each morning dose for this protocol.

[3] = Solubility experiments in ethanol/water
Excerpt: To maximize the amount of hydrophobic shell former (Leucine) on the surface, a higher ratio is desired.

[4] = typically; cited from earlier work
[5] = system: PDGFBB stimulated AKT phosphorylation; test: In cell Western, PDGFBB stimulated AKT phosphorylation in human fetal lung fibroblasts; type: cell-based; details: for IC50 for inhibiting PDGFBB stimulated AKT phosphorylation relative to imatinib: fetal human lung fibroblasts, FIG. 18
Experimental: HLFs were maintained in subculture at no more than 6 passages in DMEM with 5% FBS and 4 mM Glutamax at 37° C., 5% CO2. HLFs were plated and grown to 70-80% confluence in 96 well plates then serum-starved for 48 hours. […] Antibodies were detected using IRDye 680LT goat anti-mouse IgG and IRDye 800 W goat α-rabbit IgG conjugated antibodies. After washing, the signal was quantified using an Odyssey Infrared Imaging System (LI-COR). Phosphoprotein signal (800 nm) was normalized to total protein signal (700 nm) acquired from each well and experimental duplicates on same plate were averaged and reported.

[6] = system: rat MCT+PN model; test: Inhaled PK10571 dry powder in rat MCT+PN model, PA telemetry; type: in vivo
Excerpt: We performed a pre-clinical efficacy study of inhaled PK10571 in the rat MCT+PN model. We used the MCT+PN model, because in this model, neointimal pulmonary arteriole proliferative lesions occur in a manner similar to what is observed in the human disease. In this experiment, drug treatment was started later than in prior studies of PK10453.
In prior studies, PK10453 was started 2 weeks after MCT injection (3 weeks after pneumonectomy). In the PK10571 SDD study, treatment was started 3 weeks after MCT injection (4 weeks after pneumonectomy). It should be noted that pneumonectomized rats given MCT develop severe PAH starting two weeks after the MCT injection. (In MCT only rats, it takes longer for PAH to develop (i.e., 3 weeks)). […] A. PK10453 study time drug treatment started (See Pulm Circ 2014 8(1):82-102). B. PK10571 SDD study time treatment started in MCT+PN model. C. Start time typical for MCT only model. Data acquired via telemetry monitoring of PA pressures in ambulatory rats. (Note: Day 11 in MCT+PN model data not shown).
PK10571 dry powder with leucine and trehalose excipient was administered by nose only inhalation 30 minutes (on average) twice a day to the rats, via a Vilnius Dry Powder Generator connected to a CH Technologies Exposure tower. Estimated average API dose deposited in lung 0.25 mg/kg (calculated from measurement of aerosol concentration and minute ventilation of pneumonectomized rat) with estimated human dose equivalent (HED) 0.04 mg/kg. […] The mode of death of these animals has not been fully characterized but may be related to RV failure. We have noted that although pulmonary pressures rise gradually and progressively over a period of two weeks after MCT injection, in the third week, animals may enter a “crisis” phase and die suddenly. […] This finding confirms the disease modifying potential of PK10571. One animal in the drug treatment group was euthanized for weight loss on day 5 as per our preset criteria.

[7] = system: SU5416/hypoxia/normoxia model of PAH; test: PK10571 in SU5416/hypoxia/normoxia model of PAH; type: in vivo, rat
Experimental: The SU5416/hypoxia/normoxia model of PAH is well described in the field, is considered to accurately reflect the human disease of PAH and to predict drug response in humans^25. Study animals were administered SU5416 20 mg/kg SQ and placed in a COY Hypoxia chamber at FiO2=10%. Animals studied after 1 week hypoxia; 2 weeks hypoxia/12 days normoxia; 3 weeks hypoxia/12 days normoxia; and 3 weeks hypoxia/5 weeks normoxia. End of study procedures included acquisition of right ventricular pressure volume loops with a Scisense Admittance system. The RV PV loops were acquired on ventilated open chest animals with isoflurane anesthesia and 100% F1O2. In addition a subset of animals had implantation of DSI PAC40 telemetry catheters in the PA. In this subset, PA pressures were monitored continuously in ambulatory animals, and analysis of PA pressures before and after dosing was performed for 7 days of dosing.
PK10571/trehalose/leucine dry powder or Vehicle was administered twice a day via the CH Technologies Exposure System, in the SUGEN5416/2 week hypoxia/normoxia 2 week subgroups.
In the SU5416 model we also examined microfil radiopaque casts of the pulmonary arterial circulation with microCT and 3D reconstruction. The casts were made after flushing the pulmonary circulation of the rats with heparinized saline followed by sodium nitroprusside to maximally vasodilate the pulmonary arterial vessels. Microfil was then injected with a syringe pump at 0.2 ml/min until the proximal PA was engorged and a lattice of microfil was visible in the peripheral lung. The chest was filled with ice saline until the microfil was cured. […] Vehicle treated animal on left. PK10571 treated animal on right. Resolution: 20 microns.

[8] = molecular target: PDGFRbeta (Homo sapiens, UniProt P09619); details: FIG. 25
Experimental: A Z-lyte kinase assay was performed to determine the inhibition of PDGFRalpha and PDGFRbeta mediated phosphorylation by PK10453 (Structure 2). Ten point titration curves were modeled to calculate the IC50 (Invitrogen Select Screen®).

[9] = system: rat monocrotaline pneumonectomy model; details: inhaled twice daily for ten days
Experimental: Study protocol: male Sprague Dawley rats underwent left pneumonectomy and 10 days later were given monocrotaline 50 mg/kg IP.
Plethysmography was performed with an EMKA 2 chamber body plethysmograph and data acquired with IOX software. Statistical analysis was performed with XLSTAT.

[10] = system: PDGFBB stimulated phosphorylation of ERK1 and ERK2; test: PDGFBB stimulated phosphorylation of ERK1 and ERK2 in human fetal lung fibroblasts; type: cell-based
Excerpt: as §1

[11] = system: phosphorylated PDGF receptor beta (Y751, Y1021); test: Western blot of phosphorylated PDGF receptor beta in adult human lung fibroblasts; details: HLFa; 0.01-10 uM, 30 min pre-treatment; 10 ng/mL PDGF BB 7.5 minutes
Experimental: FIG. 40 PANEL A illustrates pPDGFrBeta (Y751), Beta-Actin, Stripped and reprobed with Total PDGFrBeta, note that 25 ug/lane was loaded, with a 1:500 dilution of pPDGFrBeta(Y751) antibody during incubation.
FIG. 40 PANEL B illustrates pPDGFrBeta (Y1021), Beta-Actin, Stripped and reprobed with Total PDGFrBeta, note that 25 ug/lane was loaded, with a 1:500 dilution of pPDGFrBeta(Y1021) antibody during incubation.

[12] = dry powder with leucine and trehalose, inhaled twice a day, within treatment group

PDGFRbeta, sequence (P09619 600-962 limits assumed): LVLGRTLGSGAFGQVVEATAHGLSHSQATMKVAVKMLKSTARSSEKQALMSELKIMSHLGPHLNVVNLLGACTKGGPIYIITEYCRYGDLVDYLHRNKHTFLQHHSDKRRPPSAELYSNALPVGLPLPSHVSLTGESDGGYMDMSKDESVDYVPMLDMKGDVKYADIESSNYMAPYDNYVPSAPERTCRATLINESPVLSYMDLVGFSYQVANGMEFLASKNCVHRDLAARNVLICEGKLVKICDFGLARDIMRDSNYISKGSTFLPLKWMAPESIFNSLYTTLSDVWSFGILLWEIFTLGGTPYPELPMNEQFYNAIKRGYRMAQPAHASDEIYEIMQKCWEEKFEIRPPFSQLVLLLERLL

Cc1ccc(NC(=O)c2ccc(CN3CCN(C)CC3)cc2)cc1Nc1nccc(-c2cccnc2)n1 [Imatinib, reference compound]
decrease of PDGF AA stimulated ppERK1 and ppERK2 formation [1]: equally effective
efficacy by inhalation in the MCT+PN model [2]: not effective

CC(C)C[C@H](N)C(=O)O [L-Leucine]
concentration obtained with a 2:1 EtOH:H2O mixture [3]: up to 13 mg/ml
concentration at which precipitated, 1:1 v:v EtOH:H2O solution ([3]; room temperature): 5000 to 10000 µg/mL
solubility in EtOH [4]: insoluble
solubility in water [4]: 25 to 30 mg/mL

COc1cc(-c2cncc(N[C@@H](C)c3cccc(NC(=O)c4cnc(C#N)nc4)c3)n2)ccc1O [PK10467]
IC50 for inhibiting PDGFBB stimulated AKT phosphorylation relative to imatinib [5]: lower IC50 concentration compared to imatinib

C=CS(=O)(=O)NCc1ccc(C(=O)Nc2cccc([C@H](C)Nc3cncc(-c4ccc(O)c(OC)c4)n3)c2)cc1 [PK10468]
IC50 for inhibiting PDGFBB stimulated AKT phosphorylation relative to imatinib [5]: lower IC50 concentration compared to imatinib

COc1cc(-c2cncc(N[C@@H](C)c3cccc(NC(=O)c4cncc(C)c4)c3)n2)ccc1C [PK10569]
IC50 for inhibiting PDGFBB stimulated AKT phosphorylation relative to imatinib [5]: lower IC50 concentration compared to imatinib

COc1ccc(-c2cncc(N[C@@H](C)c3cccc(NC(=O)c4cncc(C)c4)c3)n2)cc1OC [PK10571]
effect on pulmonary artery pressures ([6]; dry powder containing leucine and trehalose): effective in lowering pulmonary artery pressures
reduction of PA pressure, day 8 compared to day 1 [6, 12]: 22%
reduction of PA pressure, day 8 vs. day 3 [6, 12]: 35%
PA systolic pressure post dose (approximately 1 hour) vs pre-dose ([6]; early stage of treatment, up to day 4): transient decrease
RV end systolic pressure compared to vehicle ([7]; SU5416, 2 weeks hypoxia, 12 days normoxia, PK10571/trehalose/leucine dry powder twice a day): significant reduction
PA systolic pressure after dosing compared to before dosing ([7]; on some days, telemetry): significant decrease
3D microCT of pulmonary arterial vasculature ([7]; preliminary, compared to vehicle treated animal): more third and fourth generation branches
decrease of PDGF AA stimulated ppERK1 and ppERK2 formation [1]: equally effective
solubility ([3]; aqueous with cosolvent or surfactant or cyclodextrin): 50 mg/mL (≈ 106 mM)
solubility ([3]; organic solvent or mixture): 50 mg/mL (≈ 106 mM)
solubility in water ([3]; pH 7): insoluble
potency against PDGFR beta kinase domain relative to imatinib [8]: more potent than imatinib
airway resistance compared to vehicle [9]: no significant difference
minute ventilation compared to vehicle [9]: no significant difference
respiratory rate compared to vehicle [9]: lower
tidal volume compared to vehicle [9]: significantly improved
decrease of PDGF BB stimulated ppERK1 and ppERK2 relative to imatinib ([10]; 1 uM and 10 uM): more effective
decrease of PDGFBB stimulated ppERK1 formation ([10]; 1 uM, PDGF BB 10 ng/ml): effective
IC50 ([5]; Homo sapiens, Fibroblast, FIG. 26, each concentration in duplicate, read-out: IC50, PDGF BB stimulated pAKT in human lung fibroblasts): 50 nM
IC50 for inhibiting PDGFBB stimulated AKT phosphorylation relative to imatinib [5]: lower IC50 concentration compared to imatinib
phosphorylation of PDGF receptor beta [11]: decreases phosphorylation
